Reference: patent US20250243176A1, “(S)-1-(1-ACRYLOYLPIPERIDIN-3-YL)-2-FLUORO-5,6,7,8,9,10-HEXAHYDROCYCLO HEPTA[B]INDOLE-4-CARBOXAMIDE, AND RELATED CRYSTALLINE FORMS, COMPOSITIONS, AND METHODS THEREOF” (GB005, Inc., priority 2021, published 2025)
Converted amounts (≈) assume the structure as drawn. Like-named read-outs stand apart in the source and are kept apart here.

Columns and labels:
[1] = Phase 1 CSF penetrance (CSF/unbound plasma concentration); assay type: in vivo; settings: both sexes, human, oral; for Kp at 2 h: CSF / unbound plasma
Procedure: Safety is assessed throughout the study and PK and PD are characterized using serial blood samples collected up to 48 hours post-dose for Compound 1 plasma concentrations, BTK target occupancy (TO) and target engagement (TE). Cerebrospinal fluid (CSF) samples are collected at 2 hours post-dose to characterize the relationship between Compound 1 plasma concentrations and CNS penetrance (CSF/Unbound plasma concentration). Compound 1 PK parameters (e.g., AUClast, AUCinf, Cmax, Tmax, t1/2) are estimated by standard noncompartmental methods.
Mean Compound 1 CSF:unbound plasma concentration ratios approximated 1 indicating unimpeded access of unbound drug in plasma into the CNS (see, e.g., Table 46, reported as Mean (% coefficient of variation), and FIG. 26 showing CSF to unbound plasma ratio by dose).

BTK = BTK inactivation kinetics in peripheral and CNS tissue
Source text: (S)-1-(1-acryloylpiperidin-3-yl)-2-fluoro-5,6,7,8,9,10-hexahydrocyclohepta[b]indole-4-carboxamide, hereinafter referred to as “Compound 1”, is an orally available, selective, potent inhibitor of Bruton's tyrosine kinase (BTK), thereby providing potential treatment options in BTK-driven diseases. The potency of Compound 1 for BTK inhibition is in the nM range in both cell-free enzymatic and whole blood functional assays.

[2] = Solubility testing in vehicle, HPLC (Form III); assay type: physicochemical; settings: for solubility at 24 h / solubility at 72 h / solubility at 4 h: thermodynamic from solid
Procedure: In each of the following studies (Examples 6-10), the starting material was Compound 1 (free form, not salt) Form III. The material was a light yellow solid, comprising non-hygroscopic irregular shaped crystal with aggregation. The same analytical methods as described in Example 1 were employed.
Vehicle solutions were prepared as follows:
Solubility was determined at room temperature for 24 and 72 hours and at 45° C. for 4 and 24 hours. About 30/100 mg Compound 1 was added to vehicle (2 mL) and the mixture stirred at room temperature for 24 or 72 hours. The suspensions were filtered or centrifuged, and the filtrate analyzed by HPLC.

Kp at 2 h ([1]; Cohort 2, 15 mg single dose, 2 hr post-dose, mean, read-out: CSF/Unbound Plasma): 0.95
Kp at 2 h ([1]; Cohort 3, 45 mg single dose, 2 hr post-dose, mean, read-out: CSF/Unbound Plasma): 0.95
Kp at 2 h ([1]; healthy subjects, CSF samples at 2 hours post-dose, read-out: Mean CSF:unbound plasma concentration ratio): ~1
concentration at 2 h ([1]; CSF, Cohort 2, 15 mg single dose, mean, read-out: CSF Conc (2 hr)): 0.9 ng/mL
concentration at 2 h ([1]; CSF, Cohort 3, 45 mg single dose, mean, read-out: CSF Conc (2 hr)): 2.07 ng/mL
concentration at 2 h ([1]; plasma (unbound), Cohort 2, 15 mg single dose, mean, read-out: Unbound Plasma Conc @2 hr): 0.83 ng/mL
concentration at 2 h ([1]; plasma (unbound), Cohort 3, 45 mg single dose, mean, read-out: Unbound Plasma Conc @2 hr): 2.33 ng/mL
concentration at 2 h ([1]; plasma, Cohort 2, 15 mg single dose, mean, read-out: Plasma Conc @2 hr): 63.2 ng/mL
concentration at 2 h ([1]; plasma, Cohort 3, 45 mg single dose, mean, read-out: Plasma Conc @2 hr): 159 ng/mL
Solubility ([2]; Capryol 90, RT, 72 h, pH 6.5, loading 50 mg/mL): >50000 µg/mL
Solubility ([2]; Cremophor HS 15, 45° C., 24 h, pH 7.5, loading 50 mg/mL): >50000 µg/mL
Solubility ([2]; Gelucire 44/14, 45° C., 24 h, pH 5.8, loading 50 mg/mL): >50000 µg/mL
Solubility ([2]; Gelucire 48/16, 45° C., 24 h, loading 50 mg/mL): >50000 µg/mL
Solubility ([2]; Labrasol, RT, 72 h, pH 6.4, loading 50 mg/mL): >50000 µg/mL
Solubility ([2]; PEG400/TPGS(3/1), 45° C., 24 h, pH 6.1, loading 50 mg/mL): >50000 µg/mL
Solubility ([2]; PEG400, RT, 72 h, pH 6.7, loading 50 mg/mL): >50000 µg/mL
Solubility ([2]; PG, RT, 72 h, pH 5.2, loading 50 mg/mL): >50000 µg/mL
solubility at 24 h ([2]; aqueous with cosolvent or surfactant or cyclodextrin, 1% SLS, RT, 24 h, pH 7.1, loading 15 mg/mL): 1200 µg/mL (≈ 3.13 mM)
solubility at 72 h ([2]; aqueous with cosolvent or surfactant or cyclodextrin, 1% SLS, RT, 72 h, pH 7.2, loading 15 mg/mL): 1150 µg/mL (≈ 3 mM)
solubility at 24 h ([2]; aqueous with cosolvent or surfactant or cyclodextrin, 1% Tween 80, RT, 24 h, pH 6.3, loading 15 mg/mL): 160 µg/mL (≈ 0.417 mM)
solubility at 72 h ([2]; aqueous with cosolvent or surfactant or cyclodextrin, 1% Tween 80, RT, 72 h, pH 6.3, loading 15 mg/mL): 170 µg/mL (≈ 0.443 mM)
solubility at 24 h ([2]; aqueous with cosolvent or surfactant or cyclodextrin, 1% polox188, RT, 24 h, pH 5.7, loading 15 mg/mL): 0.2 µg/mL (≈ 0.000522 mM)
solubility at 72 h ([2]; aqueous with cosolvent or surfactant or cyclodextrin, 1% polox188, RT, 72 h, pH 5.7, loading 15 mg/mL): 0.4 µg/mL (≈ 0.00104 mM)
solubility at 24 h ([2]; aqueous with cosolvent or surfactant or cyclodextrin, 1% polox407, RT, 24 h, pH 6.7, loading 15 mg/mL): 4 µg/mL (≈ 0.0104 mM)
solubility at 72 h ([2]; aqueous with cosolvent or surfactant or cyclodextrin, 1% polox407, RT, 72 h, pH 6.9, loading 15 mg/mL): 1 µg/mL (≈ 0.00261 mM)
solubility at 24 h ([2]; aqueous with cosolvent or surfactant or cyclodextrin, 5% PVP K30, RT, 24 h, pH 4.0, loading 15 mg/mL): 8 µg/mL (≈ 0.0209 mM)
solubility at 72 h ([2]; aqueous with cosolvent or surfactant or cyclodextrin, 5% PVP K30, RT, 72 h, pH 4.0, loading 15 mg/mL): 60 µg/mL (≈ 0.156 mM)
solubility at 24 h ([2]; aqueous with cosolvent or surfactant or cyclodextrin, 5% PVP VA64, RT, 24 h, pH 4.6, loading 15 mg/mL): 36 µg/mL (≈ 0.0939 mM)
solubility at 72 h ([2]; aqueous with cosolvent or surfactant or cyclodextrin, 5% PVP VA64, RT, 72 h, pH 4.6, loading 15 mg/mL): 42 µg/mL (≈ 0.11 mM)
solubility at 24 h ([2]; aqueous with cosolvent or surfactant or cyclodextrin, 10% HP-B-CD, RT, 24 h, pH 6.7, loading 15 mg/mL): 230 µg/mL (≈ 0.6 mM)
solubility at 72 h ([2]; aqueous with cosolvent or surfactant or cyclodextrin, 10% HP-B-CD, RT, 72 h, pH 6.7, loading 15 mg/mL): 220 µg/mL (≈ 0.574 mM)
solubility at 24 h ([2]; aqueous with cosolvent or surfactant or cyclodextrin, 10% SBE-B-CD, RT, 24 h, pH 6.5, loading 15 mg/mL): 1600 µg/mL (≈ 4.17 mM)
solubility at 72 h ([2]; aqueous with cosolvent or surfactant or cyclodextrin, 10% SBE-B-CD, RT, 72 h, pH 6.5, loading 15 mg/mL): 1610 µg/mL (≈ 4.2 mM)
solubility at 24 h ([2]; aqueous with cosolvent or surfactant or cyclodextrin, 10% TPGS, RT, 24 h, pH 5.3, loading 15 mg/mL): 2030 µg/mL (≈ 5.29 mM)
solubility at 72 h ([2]; aqueous with cosolvent or surfactant or cyclodextrin, 10% TPGS, RT, 72 h, pH 5.3, loading 15 mg/mL): 2040 µg/mL (≈ 5.32 mM)
solubility at 4 h ([2]; aqueous with cosolvent or surfactant or cyclodextrin, Cremophor RH40, 45° C., loading 50 mg/mL): 18600 µg/mL (≈ 48.5 mM)
solubility at 4 h ([2]; aqueous with cosolvent or surfactant or cyclodextrin, Gelucire 44/14, 45° C., pH 5.7, loading 50 mg/mL): 48100 µg/mL (≈ 125 mM)
solubility at 24 h ([2]; aqueous with cosolvent or surfactant or cyclodextrin, Gelucire 44/14, 45° C., 24 h, pH 5.8, loading 50 mg/mL): > 50000 µg/mL
solubility at 4 h ([2]; aqueous with cosolvent or surfactant or cyclodextrin, Gelucire 48/16, 45° C., loading 50 mg/mL): 44300 µg/mL (≈ 116 mM)
solubility at 24 h ([2]; aqueous with cosolvent or surfactant or cyclodextrin, Gelucire 48/16, 45° C., 24 h, loading 50 mg/mL): > 50000 µg/mL
solubility at 24 h ([2]; aqueous with cosolvent or surfactant or cyclodextrin, Labrasol, RT, 24 h, pH 6.9, loading 50 mg/mL): > 50000 µg/mL
solubility at 72 h ([2]; aqueous with cosolvent or surfactant or cyclodextrin, Labrasol, RT, 72 h, pH 6.4, loading 50 mg/mL): > 50000 µg/mL
solubility at 24 h ([2]; oil or lipid, Capryol 90, RT, 24 h, pH 6.8, loading 50 mg/mL): 47900 µg/mL (≈ 125 mM)
solubility at 72 h ([2]; oil or lipid, Capryol 90, RT, 72 h, pH 6.5, loading 50 mg/mL): > 50000 µg/mL
solubility at 24 h ([2]; oil or lipid, Miglyol 810, RT, 24 h, pH 5.8, loading 15 mg/mL): 2160 µg/mL (≈ 5.63 mM)
solubility at 72 h ([2]; oil or lipid, Miglyol 810, RT, 72 h, pH 5.8, loading 15 mg/mL): 2670 µg/mL (≈ 6.96 mM)
Compound: C=CC(=O)N1CCC[C@@H](c2c(F)cc(C(N)=O)c3[nH]c4c(c23)CCCCC4)C1 [Compound 1, (S)-1-(1-acryloylpiperidin-3-yl)-2-fluoro-5,6,7,8,9,10-hexahydrocyclohepta[b]indole-4-carboxamide]
BTK inactivation kinetics (BTK): rapid
